Measured values published in patent publication US20240139290A1, “METHODS OF TREATING A CARDIOVASCULAR ISCHEMIC EVENT” (Radius Health, Inc., priority 2021, published 2024).
“Also recorded” adds a separate entry of the source.

Experiments:
[1] = tested on: ERK; assay: Immunoblot of phospho-ERK in HL-1 cardiomyocytes (normoxia or simulated ischemia + 10 min reoxygenation); format: cell-based, murine; details: for phospho-ERK expression with co-administration of PD98059: 5 μM PD98059, control, abaloparatide- and PTHrP-treated groups
Description: (§1) At 24 h after the onset of treatment, cells underwent 2 h of SI+10 min reoxygenation, while additional time- and treatment-matched normoxic cultures served as controls (n=3 independent replicates per group). At 10 min post-reoxygenation, cells were harvested and lysed in RIPA buffer containing 2 protease and phosphatase inhibitors. The lysates were centrifuged at 14,000×g for 15 min, and the resultant supernatant was collected and probed for the expression of ERK (total and phosphorylated: antibodies from Cell Signaling Technology Inc., Danvers, MA, USA), PI3 kinase/Akt (total and phosphorylated: Cell Signaling Technology Inc., Danvers, MA, USA) and GAPDH (Sigma Aldrich Inc., St. Louis, MO, USA) using standard methods Immunoreactive bands were identified by incubation with horseradish peroxidase (HRP)-conjugated secondary antibody, visualized using x-ray film, and quantified using the NIH ImageJ software. […] At 24 h after the onset of treatment, cells underwent either 2 h of SI+24 h reoxygenation or a time-matched period of normoxia (n=2 independent replicates per group). At 24 h following relief of SI, cell viability was quantified using the MTT assay as described in Example 1.
HL-1 cardiomyocytes were treated as described in Example 5, but were harvested at 10 minutes post-reoxygenation, lysed, and probed for phospho- and total ERK expression as detailed in Example 5.

[2] = tested on: HL-1 cardiomyocytes; details: doxorubicin 2.5 μM for 24 hours; previously shown; cited from earlier work
[3] = clinical studies; cited from earlier work
[4] = tested on: Akt; assay: Immunoblot of phospho-Akt in HL-1 cardiomyocytes (normoxia or simulated ischemia + 10 min reoxygenation); format: cell-based, murine; details: 2 h simulated ischemia + 10 min reoxygenation; 10 nM; vs vehicle; Example 3, FIG. 3B
Description: as §1

[5] = tested on: HL-1 cardiomyocytes; assay: HL-1 cardiomyocyte viability (MTT assay) under normoxia or simulated ischemia-reperfusion; format: cell-based, murine
Description: HL-1 cardiomyocytes were grown to ˜80% confluence in 95% room air/5% CO2 at 37° C. in Claycomb medium supplemented with fetal bovine serum (10%), L-glutamine (2 mM), norepinephrine (0.1 mM), penicillin (100 U/mL) and streptomycin (100 μg/mL). The cardiomyocytes were then incubated for 24 hours with abaloparatide (0.1 nM, 1.0 nM, 10 nM, 100 nM) or vehicle control. At 24 hours after the onset of incubation, the cells were subjected to 2 hours of simulated ischemia (achieved by depletion of oxygen and nutrients), followed by 24 hours of reoxygenation. During simulated ischemia, Claycomb medium containing drug/placebo was replaced with drug-free hypoxia buffer at pH 6.6 (composed of NaCl ([…]), KCl (8 mM), KH2PO4 (1.2 mM), 1.25 mM MgSO4 (1.25 mM), CaCl2 (1.2 mM), NaHCO3 (6.25 mM), HEPES (20 mM), glucose (5.5 mM), 2-deoxy-D-glucose (20 mM), sodium lactate (5 mM): all ingredients from Sigma Aldrich, St. Louis, MO, USA) and the culture plates were sealed in a hermetic chamber with GasPak EZ Gas Generating Sachets (BD Biosciences, San Jose, CA, USA). Reoxygenation was achieved by removing the plates from the sealed chamber and exchanging the hypoxia buffer with serum-free Claycomb medium. Additional time- and treatment-matched normoxic cultures served as controls (n=4 independent replicates per group). Cell viability was quantified using the 3-(4,5-dimethythiazol-2-yl)-2,5-diphenyl tetrazolium bromide (MTT) assay.
At 24 hours after the onset of incubation, the cells were subjected to 2 hours of simulated ischemia (achieved by depletion of oxygen and nutrients), followed by 24 hours of reoxygenation. Additional time- and treatment-matched normoxic cultures served as controls. Cell viability was quantified using the 3-(4,5-dimethythiazol-2-yl)-2,5-diphenyl tetrazolium bromide (MTT) assay.
as §1
Twenty-four hours after the onset of treatment, cells underwent 2 hours of simulated ischemia followed by 24 hours of reoxygenation. Additional time- and treatment-matched normoxic cultures served as controls. Cell viability was quantified using the MTT assay.

[6] = Obaidi et al. 2010; cited from earlier work
[7] = human, in vivo, sc; cited from earlier work
[8] = simulated ischemia + 10 min reoxygenation, Example 6, FIG. 6B

## COc1cccc(-c2cc(=O)c3ccccc3o2)c1N [PD98059]
[1]; [8]
  phospho-ERK expression with co-administration of PD98059: attenuated

## COc1cccc2c1C(=O)c1c(O)c3c(c(O)c1C2=O)C[C@@](O)(C(=O)CO)C[C@@H]3O[C@H]1C[C@H](N)[C@H](O)[C@H](C)O1 [doxorubicin]
[2]
  HL-1 cardiomyocytes killed: ~50%

## CC[C@H](C)[C@H](NC(=O)[C@H](CCC(=O)O)NC(=O)[C@H](CO)NC(=O)[C@@H](NC(=O)[C@@H](N)CO)C(C)C)C(=O)N[C@@H](CCC(N)=O)C(=O)N[C@@H](CC(C)C)C(=O)N[C@@H](CCSC)C(=O)N[C@@H](Cc1cnc[nH]1)C(=O)N[C@@H](CC(N)=O)C(=O)N[C@@H](CC(C)C)C(=O)NCC(=O)N[C@@H](CCCCN)C(=O)N[C@@H](Cc1cnc[nH]1)C(=O)N[C@@H](CC(C)C)C(=O)N[C@@H](CC(N)=O)C(=O)N[C@@H](CO)C(=O)N[C@@H](CCSC)C(=O)N[C@@H](CCC(=O)O)C(=O)N[C@@H](CCCN=C(N)N)C(=O)N[C@H](C(=O)N[C@@H](CCC(=O)O)C(=O)N[C@@H](Cc1c[nH]c2ccccc12)C(=O)N[C@@H](CC(C)C)C(=O)N[C@@H](CCCN=C(N)N)C(=O)N[C@@H](CCCCN)C(=O)N[C@@H](CCCCN)C(=O)N[C@@H](CC(C)C)C(=O)N[C@@H](CCC(N)=O)C(=O)N[C@@H](CC(=O)O)C(=O)N[C@H](C(=O)N[C@@H](Cc1cnc[nH]1)C(=O)N[C@@H](CC(N)=O)C(=O)N[C@@H](Cc1ccccc1)C(=O)O)C(C)C)C(C)C [teriparatide]
[3]
  orthostatic hypotension: transient episodes of symptomatic orthostatic hypotension
  palpitations: palpitations
  tachycardia: tachycardia

## abaloparatide
[4]
  expression of phospho-Akt (normalized to GAPDH): better preservation of phospho-Akt
[5]; 2 h simulated ischemia + 24 h reoxygenation, 10 nM, Example 5, FIG. 5B
  HL-1 cell viability vs vehicle-controls: viability was better maintained
[5]; 2 h simulated ischemia + 24 h reoxygenation, 10 and 100 nM, Example 4, FIG. 4B
  HL-1 cell viability vs vehicle-controls: viability was better-maintained
[5]; 2 h simulated ischemia + 24 h reoxygenation, abaloparatide 0.1-100 nM, 24 h pre-incubation, Example 1, FIG. 1B
  HL-1 cell viability vs vehicle control: viability was better-maintained
[5]; in vitro model of ischemia-reperfusion injury, summary statement
  efficacy of abaloparatide relative to PTHrP(1-36): slightly but significantly greater than that of PTHrP(1-36)
[5]; in vitro model of lethal ischemia-reperfusion injury, summary statement
  viability of HL-1 cardiomyocyte cells: enhancement in viability
[5]; normoxic conditions, abaloparatide 0.1-100 nM, 24 h incubation, Example 1, FIG. 1A
  HL-1 cell viability: no effect on HL-1 cell viability
[5]; simulated ischemia-reperfusion, 10 nM peptide + 5 μM PD98059, Example 5, FIG. 5B
  protective effect on viability with co-administration of PD98059: attenuated by co-administration of PD98059; also recorded: attenuated the protective effect
[5]; simulated ischemia-reperfusion, p<0.05 between groups, Example 4, FIG. 4B
  viability with 10 nM abaloparatide compared with other groups: greater than that achieved with 100 nM abaloparatide and 10 nM PTHrP(1-36)
[5]; simulated ischemia-reperfusion, tested 0.1, 1.0, 10, 100 nM, Example 1, FIG. 1B
  concentration with greatest efficacy on viability: 10 nM
[5]; summary statement on Examples 1-3
  HL-1 cardiomyocyte death caused by simulated ischemia-reperfusion: attenuated HL-1 cardiomyocyte death
[6]
  anabolic activity: potent anabolic activity
  bone resorption: decreased bone resorption
  calcium-mobilizing potential: less calcium-mobilizing potential
[7]
  heart rate: modest and transient increases in heart rate
  heart rate relative to placebo: transient increases in heart rate
  incidence of palpitations relative to placebo: higher incidences of palpitations
  supine blood pressure: decreases in supine blood pressure
[1]; 2 h simulated ischemia + 10 min reoxygenation, 10 nM, vs vehicle, Example 3, FIG. 3C
  expression of phospho-ERK (normalized to total ERK): augmented expression of phospho-ERK
[1]; simulated ischemia + 10 min reoxygenation, 10 nM, Example 6, FIG. 6B
  expression of phospho-ERK vs vehicle-controls: augmented expression phospho-ERK
[1]; [8]
  phospho-ERK expression with co-administration of PD98059: attenuated
